≈ marks a conversion by molar mass, not a printed value.
What was measured:
Format in all cases: cell-based
[1] = test system: Haemophilus influenzae 1218; test: MIC, microtiter broth dilution (NCCLS M100-S14), H. influenzae 1218 (susceptible); conditions: Haemophilus influenzae 1218
In short: (§1)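 Where available, resistant strains were tested alongside the susceptible parent they derive from. The MIC, determined by tray-based broth dilution and NCCLS M100-S14 interpretation, served as the comparison value.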

[2] = test system: Streptococcus pneumoniae 1175; conditions: Streptococcus pneumoniae 1175; microtiter broth dilution
In short: as §1

[3] = test system: Streptococcus pneumoniae 1095; conditions: Streptococcus pneumoniae 1095; microtiter broth dilution
In short: as §1

[4] = test system: Streptococcus pyogenes 1079; test: MIC, microtiter broth dilution (NCCLS M100-S14), S. pyogenes 1079 (ermB); conditions: Streptococcus pyogenes 1079
In short: as §1

[5] = test system: Streptococcus pneumoniae 1016; test: MIC, microtiter broth dilution (NCCLS M100-S14), S. pneumoniae 1016 (susceptible); conditions: Streptococcus pneumoniae 1016
In short: as §1

CCC1OC(=O)C(C)C(=O)C(C)C(OC2OC(C)CC(N(C)C)C2O)C(C)(OC)CC(C)C(=O)C(C)C2N(C3CN(Cc4ccncc4Cl)C3)C(=O)OC12C (stereo not drawn) [Example 1.79, 3-descladinosyl-11,12-dideoxy-6-O-methyl-3-oxo-12,11-(oxycarbonyl-(1-(3-chloropyridine-4-methyl)-azetidin-3-yl)-imino)-erythromycin A]
MIC H. influenzae 1218 [1]: 1 µg/mL (≈ 1.26 µM) | MIC S. pneumo. 1175 [2]: <0.063 µg/mL | MIC S. pneumo. 1095 [3]: <0.063 µg/mL | MIC S. pyogenes 1079 [4]: 4 µg/mL (≈ 5.04 µM) | MIC S. pneumo. 1016 [5]: <0.063 µg/mL

CCC1OC(=O)C(C)C(=O)C(C)C(OC2OC(C)CC(N(C)C)C2O)C(C)(OC)CC(C)C(=O)C(C)C2N(C3CN(C(COC)c4ccnc5ncccc45)C3)C(=O)OC12C (stereo not drawn) [Example 1.80, 3-descladinosyl-11,12-dideoxy-6-O-methyl-3-oxo-12,11-(oxycarbonyl-(1-(2-(methoxy)-1S-(1,8-napthyridin-4-yl)-ethyl)-azetidin-3-yl)-imino)-erythromycin A]
MIC H. influenzae 1218 [1]: 4 µg/mL (≈ 4.68 µM) | MIC S. pneumo. 1175 [2]: 0.125 µg/mL (≈ 0.146 µM) | MIC S. pneumo. 1095 [3]: 1 µg/mL (≈ 1.17 µM) | MIC S. pyogenes 1079 [4]: 16 µg/mL (≈ 18.7 µM) | MIC S. pneumo. 1016 [5]: <0.063 µg/mL

CCC1OC(=O)C(C)C(=O)C(C)C(OC2OC(C)CC(N(C)C)C2O)C(C)(OC)CC(C)C(=O)C(C)C2N(C3CN(Cc4ccc(=O)n5ccccc45)C3)C(=O)OC12C (stereo not drawn) [Example 1.82, 3-descladinosyl-11,12-dideoxy-6-O-methyl-3-oxo-12,11-(oxycarbonyl-(1-(4H-quinolizin-4-one-1-methyl)-azetidin-3-yl)-imino)-erythromycin A]
MIC H. influenzae 1218 [1]: 0.5 µg/mL (≈ 0.606 µM) | MIC S. pneumo. 1175 [2]: <0.063 µg/mL | MIC S. pneumo. 1095 [3]: <0.063 µg/mL | MIC S. pyogenes 1079 [4]: 4 µg/mL (≈ 4.85 µM) | MIC S. pneumo. 1016 [5]: <0.063 µg/mL

CCC1OC(=O)C(C)C(=O)C(C)C(OC2OC(C)CC(N(C)C)C2O)C(C)(OC)CC(C)C(=O)C(C)C2N(C3CN(Cc4cccn5nccc45)C3)C(=O)OC12C (stereo not drawn) [Example 1.83, 3-descladinosyl-11,12-dideoxy-6-O-methyl-3-oxo-12,11-(oxycarbonyl-(1-(H-pyrazolo[1,5-a]pyridine-4-methyl)-azetidin-3-yl)-imino)-erythromycin A]
MIC H. influenzae 1218 [1]: 1 µg/mL (≈ 1.25 µM) | MIC S. pneumo. 1175 [2]: <0.063 µg/mL | MIC S. pneumo. 1095 [3]: <0.063 µg/mL | MIC S. pyogenes 1079 [4]: 4 µg/mL (≈ 5.01 µM) | MIC S. pneumo. 1016 [5]: <0.063 µg/mL

CCC1OC(=O)C(C)C(=O)C(C)C(OC2OC(C)CC(N(C)C)C2O)C(C)(OC)CC(C)C(=O)C(C)C2N(C3CN(Cc4ccnc5c(OC)cccc45)C3)C(=O)OC12C (stereo not drawn) [Example 1.84, 3-descladinosyl-11,12-dideoxy-6-O-methyl-3-oxo-12,11-(oxycarbonyl-(1-(8-methoxyquinoline-4-methyl)-azetidin-3-yl)-imino)erythromycin A]
MIC H. influenzae 1218 [1]: 2 µg/mL (≈ 2.38 µM) | MIC S. pneumo. 1175 [2]: <0.063 µg/mL | MIC S. pneumo. 1095 [3]: <0.063 µg/mL | MIC S. pyogenes 1079 [4]: 8 µg/mL (≈ 9.53 µM) | MIC S. pneumo. 1016 [5]: <0.063 µg/mL

CCC1OC(=O)C(C)C(=O)C(C)C(OC2OC(C)CC(N(C)C)C2O)C(C)(OC)CC(C)C(=O)C(C)C2N(C3CN(Cc4c(OC)ccc5ccccc45)C3)C(=O)OC12C (stereo not drawn) [Example 1.86, 3-descladinosyl-11,12-dideoxy-6-O-methyl-3-oxo-12,11-(oxycarbonyl-(1-(2-methoxynaphthalene-1-methyl)-azetidin-3-yl)-imino)-erythromycin A]
MIC H. influenzae 1218 [1]: 1 µg/mL (≈ 1.19 µM) | MIC S. pneumo. 1175 [2]: <0.063 µg/mL | MIC S. pneumo. 1095 [3]: 0.125 µg/mL (≈ 0.149 µM) | MIC S. pyogenes 1079 [4]: 1 µg/mL (≈ 1.19 µM) | MIC S. pneumo. 1016 [5]: <0.063 µg/mL

CCC1OC(=O)C(C)C(=O)C(C)C(OC2OC(C)CC(N(C)C)C2O)C(C)(OC)CC(C)C(=O)C(C)C2N(C3CN(Cc4ccnc5[nH]c(C6CC6)nc45)C3)C(=O)OC12C (stereo not drawn) [Example 1.89, 3-descladinosyl-11,12-dideoxy-6-O-methyl-3-oxo-12,11-(oxycarbonyl-(1-(2-cyclopropyl-3H-imidazo[4,5-b]pyridine-7-methyl)-azetidin-3-yl)-imino)-erythromycin A]
MIC H. influenzae 1218 [1]: 4 µg/mL (≈ 4.77 µM) | MIC S. pneumo. 1175 [2]: <0.063 µg/mL | MIC S. pneumo. 1095 [3]: 0.5 µg/mL (≈ 0.596 µM) | MIC S. pyogenes 1079 [4]: 1 µg/mL (≈ 1.19 µM) | MIC S. pneumo. 1016 [5]: <0.063 µg/mL

CCC1OC(=O)C(C)C(=O)C(C)C(OC2OC(C)CC(N(C)C)C2O)C(C)(OC)CC(C)C(=O)C(C)C2N(C3CN(Cc4ccnc5ccc(OC)cc45)C3)C(=O)OC12C (stereo not drawn) [Example 1.90, 3-descladinosyl-11,12-dideoxy-4-O-methyl-3-oxo-12,11-(oxycarbonyl-(1-(6-methoxyquinoline-4-methyl)-azetidin-3-yl)-imino)-erythromycin A]
MIC H. influenzae 1218 [1]: 2 µg/mL (≈ 2.38 µM) | MIC S. pneumo. 1175 [2]: <0.063 µg/mL | MIC S. pneumo. 1095 [3]: 0.125 µg/mL (≈ 0.149 µM) | MIC S. pyogenes 1079 [4]: 2 µg/mL (≈ 2.38 µM) | MIC S. pneumo. 1016 [5]: <0.063 µg/mL

CCC1OC(=O)C(C)C(=O)C(C)C(OC2OC(C)CC(N(C)C)C2O)C(C)(OC)CC(C)C(=O)C(C)C2N(C3CN(Cc4cccc5ccccc45)C3)C(=O)OC12C (stereo not drawn) [Example 1.91, 3-descladinosyl-11,12-dideoxy-6-O-methyl-3-oxo-12,11-(oxycarbonyl-(1-(naphthalene-1-methyl)-azetidin-3-yl)-imino)-erythromycin A]
MIC H. influenzae 1218 [1]: 1 µg/mL (≈ 1.24 µM) | MIC S. pneumo. 1175 [2]: <0.063 µg/mL | MIC S. pneumo. 1095 [3]: 0.125 µg/mL (≈ 0.155 µM) | MIC S. pyogenes 1079 [4]: 8 µg/mL (≈ 9.9 µM) | MIC S. pneumo. 1016 [5]: <0.063 µg/mL

CCC1OC(=O)C(C)C(=O)C(C)C(OC2OC(C)CC(N(C)C)C2O)C(C)(OC)CC(C)C(=O)C(C)C2N(C3CN(Cc4c(C)ccc5ccccc45)C3)C(=O)OC12C (stereo not drawn) [Example 1.92, 3-descladinosyl-11,12-dideoxy-6-O-methyl-3-oxo-12,11-(oxycarbonyl-(1-(2-methylnaphthalene-1-methyl)-azetidin-3-yl)-imino)erythromycin A]
MIC H. influenzae 1218 [1]: 2 µg/mL (≈ 2.43 µM) | MIC S. pneumo. 1175 [2]: <0.063 µg/mL | MIC S. pneumo. 1095 [3]: 0.125 µg/mL (≈ 0.152 µM) | MIC S. pyogenes 1079 [4]: 2 µg/mL (≈ 2.43 µM) | MIC S. pneumo. 1016 [5]: <0.063 µg/mL

CCC1OC(=O)C(C)C(=O)C(C)C(OC2OC(C)CC(N(C)C)C2O)C(C)(OC)CC(C)C(=O)C(C)C2N(C3CN(Cc4ccnc5c4ncn5C)C3)C(=O)OC12C (stereo not drawn) [Example 1.93, 3-descladinosyl-11,12-dideoxy-6-O-methyl-3-oxo-12,11-(oxycarbonyl-(1-(3-methyl-3H-imidazo[4,5-b]pyridine-7-methyl)-azetidin-3-yl)-imino)-erythromycin A]
MIC H. influenzae 1218 [1]: 2 µg/mL (≈ 2.46 µM) | MIC S. pneumo. 1175 [2]: 1 µg/mL (≈ 1.23 µM) | MIC S. pneumo. 1095 [3]: <0.063 µg/mL | MIC S. pyogenes 1079 [4]: 1 µg/mL (≈ 1.23 µM) | MIC S. pneumo. 1016 [5]: <0.063 µg/mL

CCC1OC(=O)C(C)C(=O)C(C)C(OC2OC(C)CC(N(C)C)C2O)C(C)(OC)CC(C)C(=O)C(C)C2N(C3CN(Cc4ccc5c(c4)CS(=O)(=O)C5)C3)C(=O)OC12C (stereo not drawn) [Example 1.94]
MIC H. influenzae 1218 [1]: 1 µg/mL (≈ 1.18 µM) | MIC S. pneumo. 1175 [2]: 0.25 µg/mL (≈ 0.295 µM) | MIC S. pneumo. 1095 [3]: 0.5 µg/mL (≈ 0.59 µM) | MIC S. pyogenes 1079 [4]: 4 µg/mL (≈ 4.72 µM) | MIC S. pneumo. 1016 [5]: <0.063 µg/mL

CC[C@H]1OC(=O)[C@H](C)C(=O)[C@H](C)[C@@H](O[C@@H]2O[C@H](C)C[C@H](N(C)C)[C@H]2O)[C@](C)(OC)C[C@@H](C)C(=O)[C@H](C)[C@H]2N(C3CN(Cc4ccnc5c(C#N)cccc45)C3)C(=O)O[C@]12C [Example 1.95, 3-descladinosyl-11,12-dideoxy-6-O-methyl-3-oxo-12,11-(oxycarbonyl-(1-(quinoline-8-carbonitrile-4-methyl)-azetidin-3-yl)-imino)-erythromycin A]
MIC H. influenzae 1218 [1]: 2 µg/mL (≈ 2.4 µM) | MIC S. pneumo. 1175 [2]: <0.063 µg/mL | MIC S. pneumo. 1095 [3]: 1 µg/mL (≈ 1.2 µM) | MIC S. pyogenes 1079 [4]: 1 µg/mL (≈ 1.2 µM) | MIC S. pneumo. 1016 [5]: <0.063 µg/mL

CCC1OC(=O)C(C)C(=O)C(C)C(OC2OC(C)CC(N(C)C)C2O)C(C)(OC)CC(C)C(=O)C(C)C2N(C3CN(Cc4ccc(C#N)c5ncccc45)C3)C(=O)OC12C (stereo not drawn) [Example 1.96, 3-descladinosyl-11,12-dideoxy-6-O-methyl-3-oxo-12,11-(oxycarbonyl-(1-(quinoline-8-carbonitrile-5-methyl)-azetidin-3-yl)-imino)-erythromycin A]
MIC H. influenzae 1218 [1]: 1 µg/mL (≈ 1.2 µM) | MIC S. pneumo. 1175 [2]: <0.063 µg/mL | MIC S. pneumo. 1095 [3]: <0.063 µg/mL | MIC S. pyogenes 1079 [4]: 1 µg/mL (≈ 1.2 µM) | MIC S. pneumo. 1016 [5]: <0.063 µg/mL

CCOc1ccc2ccccc2c1CN1CC(N2C(=O)OC3(C)C(CC)OC(=O)C(C)C(=O)C(C)C(OC4OC(C)CC(N(C)C)C4O)C(C)(OC)CC(C)C(=O)C(C)C23)C1 (stereo not drawn) [Example 1.97, 3-descladinosyl-11,12-dideoxy-6-O-methyl-3-oxo-12,11-(oxycarbonyl-(1-(2-ethoxynaphthalene-1-methyl)-azetidin-3-yl)-imino)-erythromycin A]
MIC H. influenzae 1218 [1]: 0.5 µg/mL (≈ 0.587 µM) | MIC S. pneumo. 1175 [2]: <0.063 µg/mL | MIC S. pneumo. 1095 [3]: <0.063 µg/mL | MIC S. pyogenes 1079 [4]: 2 µg/mL (≈ 2.35 µM) | MIC S. pneumo. 1016 [5]: <0.063 µg/mL
